Results from patent US12545685B2 (Daiichi Sankyo Company, Limited, priority 2011, dated 2026).
Structures can show the parent of a compound that is named as a salt.

Tests used:
[1] = test system: human lung cancer-derived cell line NCI-H460 having wild-type p53; assay: Cell growth inhibition assay (MTT); assay type: cell-based; settings: 72 h, NCI-H460 cells, 3 days culture, values given as ranges, read-out: 50% growth inhibition concentration (GI50 value)
Procedure: A cell growth inhibition assay was conducted using a human lung cancer-derived cell line NCI-H460 having wild-type p53.
NCI-H460 cells were suspended in a medium (RPMI1640 medium containing 10% fetal bovine serum) and the suspension was added in an amount of 500 cells/150 μl/well to a 96-well plate. A test compound was dissolved in DMSO and this solution was diluted with medium to prepare a sample solution (DMSO concentration: 1% or lower). On the next day, medium nonsupplemented with the test compound, or the sample solution, was added in an amount of 50 μl/well. Cells were then cultured at 37° ° C. for 3 days in a 5% CO2 atmosphere.
An MTT assay was conducted immediately after the nonsupplemented medium or the sample solution was added. Another MTT assay was conducted after culturing the cells for 3 days. The MIT assays were conducted as shown below.
A 5 mg/ml MTT (3-(4,5-dimethylthiazol-2-yl)-2,5-diphenyltetrazolium bromide, Sigma-Aldrich Co., M-2128) solution was prepared using a phosphate buffer solution (Dulbecco's Phosphate-buffered Saline). This MIT solution was added in an amount of 20 μl/well. Then the plate was cultured at 37° ° C. for 4 hours in a 5% CO2 atmosphere. The plate was centrifuged at 1200 rpm for 5 minutes and then the culture supernatant was removed by aspiration using a dispenser. DMSO was added in an amount of 150 μl/well to dissolve generated formazan. The plate was stirred using a plate mixer for uniform color development from each well. The absorbance of each well was measured at OD 540 nm and at a reference OD (660 nm) using a plate reader (SpectraMax PLUS384, Molecular Devices, CA, USA).
The OD value measured on the day of adding the sample solution was defined as S. The OD value measured three days after addition of the sample solution was defined as T. The OD value measured three days after addition of the DMSO dilution was defined as C. T/C (%) was determined at each concentration according to the formula shown below in order to prepare a dose response curve, from which 50% growth inhibition concentration (GI50 value) was calculated.

[2] = molecular target: T1, Mdm2/p53 binding (GST-Mdm2 / His-p53) (Homo sapiens, UniProt Q00987, L33E); assay: Mdm2/p53 binding assay (HTRF, His-p53 and GST-Mdm2); settings: His-p53 (aa 1-132) and GST-Mdm2 (aa 25-108, L33E) 6.25 nM each; 25°C, 1 hour; values given as ranges
T1 construct: Mdm2 partial protein having Mdm2 amino acids at positions 25 to 108
T1 sequence (Q00987 25-108 L33E): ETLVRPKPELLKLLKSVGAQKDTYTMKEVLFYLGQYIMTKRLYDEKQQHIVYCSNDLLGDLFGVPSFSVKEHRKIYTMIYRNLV
In short: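 Binding was detected by HTRF (ex 320 nm, em 620/665 nm) after 1 h at 25 °C, using Eu-cryptate anti-GST and XL665 anti-His antibodies. The protein pair was GST-Mdm2 (residues 25–108, L33E) with His-p53 (residues 1–132), each 6.25 nM in the protein dilution. T/C used no-compound control and no-p53 background, and IC50 came from sigmoid fitting.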

Compound | GI50 [1] | IC50 [2]
CC1(C)CCC2(CC1)N[C@@H](C(=O)N[C@@H]1CC[C@@H](C(O)CO)OC1)[C@H](c1ccnc(Cl)c1F)[C@]21C(=O)Nc2cc(Cl)ccc21 (single isomer, unassigned) [Example 90] | 100 to 500 nM | –
CC1(C)CCC2(CC1)N[C@@H](C(=O)N[C@@H]1CC[C@@H](CNS(C)(=O)=O)OC1)[C@H](c1ccnc(Cl)c1F)[C@]21C(=O)Nc2cc(Cl)ccc21 [Example 166, (3′R, 4′S,5′R)-6″-chloro-4′-(2-chloro-3-fluoropyridin-4-yl)-4,4-dimethyl-N-[(3R,6S)-6-{[(methylsulfonyl)amino]methyl}tetrahydro-2H-pyran-3-yl]-2″-oxo-1″,2″-dihydrodispiro[cyclohexane-1,2′-pyrrolidine-3′,3″-indole]-5′-carboxamide] | – | 50 to 100 nM
CN(C)C(=O)[C@@H]1CC[C@@H](NC(=O)[C@@H]2NC3(CC(CF)(CF)C3)[C@@]3(C(=O)Nc4cc(Cl)ccc43)[C@H]2c2ccnc(Cl)c2F)CO1 [Example 167, (3′R, 4′S,5′R)-6″-chloro-4′-(2-chloro-3-fluoropyridin-4-yl)-N-[(3R,6S)-6-(dimethylcarbamoyl)tetrahydro-2H-pyran-3-yl]-3,3-bis(fluoromethyl)-2″-oxo-1′″, 2′″-dihydrodispiro[cyclobutane-1,2′-pyrrolidine-3′,3″-indole]-5″-carboxamide] | – | 1 to 50 nM
O=C(N[C@@H]1CC[C@@H](CO)OC1)[C@@H]1NC2(CC(CF)(CF)C2)[C@@]2(C(=O)Nc3cc(Cl)ccc32)[C@H]1c1cc(Cl)cc(Cl)c1 [Example 169, (3′R, 4′R, 5′R)-6″-chloro-4′-(3,5-dichlorophenyl)-3,3-bis(fluoromethyl)-N-[(3R,6S)-6-(hydroxymethyl)tetrahydro-2H-pyran-3-yl]-2″-oxo-1″,2″-dihydrodispiro[cyclobutane-1,2′-pyrrolidine-3′,3″-indole]-5′-carboxamide] | – | 50 to 100 nM
C[C@@H](O)[C@@H]1CC[C@@H](NC(=O)[C@@H]2NC3(CC(CF)(CF)C3)[C@@]3(C(=O)Nc4cc(Cl)ccc43)[C@H]2c2ccnc(Cl)c2F)CO1 [Example 170, (3′R, 4′S,5′R)-6″-chloro-4′-(2-chloro-3-furopyridinyl-4-yl)-3,3-bis(fluoromethyl)-N-{(3R,6S)-6-[(1R)-1-hydroxyethyl]tetrahydro-2H-pyran-3-yl}-2″-oxo-1″,2″-dihydrodispiro[cyclobutane-1,2′-pyrrolidine-3′,3′-indole]-5′-carboxamide] | – | 50 to 100 nM
Cn1cncc1CNC(=O)[C@@H]1NC2(CCC(C)(C)CC2)[C@@]2(C(=O)Nc3cc(Cl)ccc32)[C@H]1c1ccnc(Cl)c1F [Example 171, (3′R, 4′S, S′R)-6″-chloro-4′-(2-chloro-3-fluoropyridin-4-yl)-4,4-dimethyl-N-[(1-methyl-1H-imidazol-5-yl)methyl]-2″-oxo-1″,2″-dihydrodispiro[cyclohexane-1,2″-pyrrolidine-3′,3″-indole]-5′-carboxamide] | – | 50 to 100 nM
O=C(N[C@@H]1CC[C@@H](CO)OC1)[C@@H]1NC2(CC(CF)(CF)C2)[C@@]2(C(=O)Nc3cc(Cl)ccc32)[C@H]1c1ccc(F)c(Cl)c1F [Example 172, (3′R,4′S,5′R)-6″-chloro-4′-(3-chloro-2,4-difluorophenyl)-3,3-bis(fluoromethyl)-N-[(3R,6S)-6-(hydroxymethyl)tetrahydro-2H-pyran-3-yl]-2′-oxo-1″,2″-dihydrodispiro[cyclobutane-1,2′-pyrrolidine-3′,3″-indole]-5′-carboxamide] | – | 1 to 50 nM
COC(=O)[C@@H]1CC[C@@H](NC(=O)[C@@H]2NC3(CCC(C)(C)CC3)[C@@]3(C(=O)Nc4cc(Cl)ccc43)[C@H]2c2ccnc(Cl)c2F)CO1 [Example 173, Methyl (2S,5R)-5-({[(3′S,4′S,5′R)-6″-chloro-4′-(2-chloro-3-fluoropyridin-4-yl)-4,4-dimethyl-2″-oxo-1″,2″-dihydrodispiro[cyclohexane-1,2′-pyrrolidine-3′,3′-indole]-5′-yl]carbonyl}amino)tetrahydro-2H-pyran-2-carboxylate] | – | 50 to 100 nM
O=C(N[C@@H]1CC[C@@H](CO)OC1)[C@@H]1NC2(CC(CF)(CF)C2)[C@@]2(C(=O)Nc3cc(Cl)ccc32)[C@H]1c1cccc(Cl)c1 [Example 175, (3′R, 4′R, 5′R)-6″-chloro-4′-(3-chlorophenyl)-3,3-bis(fluoromethyl)-N-[(3R,6S)-6-(hydroxymethyl)tetrahydro-2H-pyran-3-yl]-2″-oxo-1″,2″-dihydrodispiro[cyclobutane-1,2′-pyrrolidine-3′,3″-indole]-5′-carboxamide] | – | 50 to 100 nM
O=C(N[C@@H]1CC[C@@H](CO)OC1)[C@@H]1NC2(CC(CF)(CF)C2)[C@@]2(C(=O)Nc3cc(Cl)ccc32)[C@H]1c1cc(F)cc(Cl)c1F [Example 176, (3′R, 4′S,5′R)-6″-chloro-4′-(3-chloro-2,5-difluorophenyl)-3,3-bis(fluoromethyl)-N-[(3R,6S)-6-(hydroxymethyl)tetrahydro-2H-pyran-3-yl]-2″-oxo-1″,2″-dihydrodispiro[cyclobutane-1,2′-pyrrolidine-3′,3″-indole]-5′-carboxamide] | – | 1 to 50 nM
CC1(C)CCC2(CC1)N[C@@H](C(=O)NC1CCN(c3nnn[nH]3)CC1)[C@H](c1ccnc(Cl)c1F)[C@]21C(=O)Nc2cc(Cl)ccc21 [Example 178, (3′R, 4′S,5′8)-6″-chloro-4′-(2-chloro-3-fluoropyridin-4-yl)-4,4-dimethyl-2″-oxo-N-[1-(1H-tetrazol-5-yl)piperidin-4-yl]-1″,2″-dihydrodispiro[cyclohexane-1,2′-pyrrolidine-3′,3″-indole]-5′-carboxamide] | – | 1 to 50 nM
CC1(C)CCC2(CC1)N[C@@H](C(=O)N[C@@H]1CC[C@@H](C(N)=O)OC1)[C@H](c1cccc(Cl)c1F)[C@]21C(=O)Nc2cc(Cl)ccc21 [Example 181, (3′R, 4′S,5′R)-N-[(3R, 6S)-6-carbamoyltetrahydro-2H-pyran-3-yl]-6″-chloro-4′-(3-chloro-2-fluorophenyl)-4,4-dimethyl-2″-oxo-1″,2″-dihydrodispiro[cyclohexane-1,2′-pyrrolidine-3′,3′-indole]-5′-carboxamide] | – | 1 to 50 nM
CC1(C)CCC2(CC1)N[C@@H](C(=O)N[C@@H]1CCC(C)(C(N)=O)OC1)[C@H](c1ccnc(Cl)c1F)[C@]21C(=O)Nc2cc(Cl)ccc21 (stereo partly drawn) [Example 187, (3′R, 4′S,5′R)—N-[(3R)-6-carbamoyl-6-methyltetrahydro-2H-pyran-3-yl]-6″-chloro-4′-(2-chloro-3-fluoropyridin-4-yl)-4,4-dimethyl-2″-oxo-1″,2″-dihydrodispiro[cyclohexane-1,2′-pyrrolidine-3′,3″-indole]-5′-carboxamide] | – | 1 to 50 nM
CC1(C)CCC2(CC1)N[C@@H](C(=O)NC1(C)CC[C@@H](C(N)=O)OC1)[C@H](c1ccnc(Cl)c1F)[C@]21C(=O)Nc2cc(Cl)ccc21 (stereo partly drawn) [Example 189, (3′R, 4′S,5′R)—N-[(6S)-6-carbamoyl-3-methyltetrahydro-2H-pyran-3-yl]-6″-chloro-4′-(2-chloro-3-fluoropyridin-4-yl)-4,4-dimethyl-2″-oxo-1′1,2″-dihydrodispiro[cyclohexane-1,2′-pyrrolidine-3′,3″-indole]-5′-Carboxamide] | – | 1 to 50 nM
C[C@@H](O)[C@@H]1CC[C@@H](NC(=O)[C@@H]2NC3(CCC(C)(C)CC3)[C@@]3(C(=O)Nc4cc(Cl)ncc43)[C@H]2c2ccnc(Cl)c2F)CO1 [Example 192, 6″-Chloro-4′-(2-chloro-3-fluoropyridin-4-yl)-N-{(3R,6S)-6-[(1R)-1-hydroxyethyl]tetrahydro-2H-pyran-3-yl}-4,4-dimethyl-2″-oxo-1″,2″-dihydrodispiro[cyclohexane-1,2′-pyrrolidine-3′,3″-pyrrolo[3,2-c]pyridine]-5′-carboxamide] | – | 1 to 50 nM
CC1(C)CCC2(CC1)N[C@@H](C(=O)N[C@@H]1CC[C@@H](C(N)=O)OC1)[C@H](c1ccnc(Cl)c1F)[C@]21C(=O)Nc2cc(Cl)ccc21 [Example 193, (3′R, 4′S, S′R)—N-[(3R,6S)-6-carbamoyltetrahydro-2H-pyran-3-yl]-6″-chloro-4′-(2-chloro-3-fluoropyridin-4-yl)-4,4-dimethyl-2″-oxo-1″,2″-dihydrodispiro[cyclohexane-1,2′-pyrrolidine-3′,3″-indole]-5′-carboxamide hydrochloride water/2-propanol (IPA) solvate] | – | 1 to 50 nM
